Read-outs that look alike come from different tables or passages of the source. Each block holds one compound with its values, some of them ahead of it. Bridge positions count the residues as written; N and C are the ends. Square brackets hold non-standard residues; d marks the D form. Ends that are not written are not given here. Peptide text beside a SMILES is read from it. Bip = N[C@@H](Cc1ccc(-c2ccccc2)cc1)C(=O)O; Oic = O=C(O)[C@@H]1C[C@@H]2CCCC[C@@H]2N1; 1Nal = N[C@@H](Cc1cccc2ccccc12)C(=O)O; 2Nal = N[C@@H](Cc1ccc2ccccc2c1)C(=O)O; hArg = N=C(N)NCCCC[C@H](N)C(=O)O; Cit = NC(=O)NCCC[C@H](N)C(=O)O; Nle = CCCC[C@H](N)C(=O)O; Ahx = NCCCCCC(=O)O
Molecular target: T1, CGRP1 receptor (Homo sapiens, UniProt O60894+Q16602)
T1 construct: SK-N-MC cells express CRLR and RAMP1, which form CGRP1 receptor; endogenous in cells; host or cells: SK-N-MC human neuroblastoma cells
T1 sequence (Q16602 23-461): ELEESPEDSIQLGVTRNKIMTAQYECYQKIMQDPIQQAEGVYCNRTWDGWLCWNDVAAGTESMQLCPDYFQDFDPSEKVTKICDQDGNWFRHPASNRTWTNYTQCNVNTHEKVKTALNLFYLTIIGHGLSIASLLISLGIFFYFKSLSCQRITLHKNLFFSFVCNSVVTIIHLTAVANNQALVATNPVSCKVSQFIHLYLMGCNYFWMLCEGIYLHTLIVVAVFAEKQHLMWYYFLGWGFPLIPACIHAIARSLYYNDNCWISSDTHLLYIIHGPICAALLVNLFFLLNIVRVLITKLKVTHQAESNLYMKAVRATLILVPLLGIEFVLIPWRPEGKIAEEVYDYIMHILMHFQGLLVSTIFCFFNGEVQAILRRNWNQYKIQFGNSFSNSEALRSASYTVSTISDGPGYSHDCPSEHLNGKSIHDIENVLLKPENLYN
T1 sequence (O60894 27-148): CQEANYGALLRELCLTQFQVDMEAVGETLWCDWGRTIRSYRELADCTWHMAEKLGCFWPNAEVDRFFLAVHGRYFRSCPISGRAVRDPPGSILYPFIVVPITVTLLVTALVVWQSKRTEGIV
Assay: in vitro CGRP1 receptor mediated cAMP assay in SK-N-MC cells
Format: cell-based
Method: The in vitro cAMP assay employed a human neuroblastoma-derived cell line (SK-N-MC). SK-N-MC cells express CRLR and RAMP1, which form CGRP1 receptor. CGRP1 receptor is a G-protein coupled receptor linked to the stimulatory G-protein, Gs. […] Briefly, two days before the assay, the cells were plated in 96-well plates in growth medium. On the day of the assay cells were rinsed with PBS followed by the addition of 60 μl of plasma free medium for 15 minutes at room temperature. […] The medium was then removed and the cells were lysed with 100 μl lysis buffer for 30 minutes at 37° C. for 30 minutes. Using a Tropix ELISA kit (Applied Biosystems, Foster City, Calif.), a cAMP-AP conjugate was diluted (1:100) and added (30 μl) to each well of a 96-well ELISA plate. An aliquot of the lysis buffer from the cell plate was then added to the ELISA plate followed by an aliquot of the cAMP antibody. This mixture was incubated for 1 hour at room temperature with gentle shaking. The ELISA plate was then washed 6× with wash buffer followed by the additions of a substrate enhancer. This mixture was incubated for 30 minutes at room temperature and then read on a MicroBeta Jet or EnVision plate reader. The results were analyzed using Prism (GraphPad).

[1] = Table 2C, unconjugated peptide, read-out: Peptide IC50

Compound: CC(=O)N[C@@H](Cc1c[nH]c2ccccc12)C(=O)N[C@H](C(=O)N[C@H](C(=O)N[C@@H](Cc1c[nH]cn1)C(=O)N[C@@H](CCCNC(N)=O)C(=O)N[C@@H](CC(C)C)C(=O)N[C@@H](C)C(=O)NCC(=O)N[C@@H](CC(C)C)C(=O)N[C@@H](CC(C)C)C(=O)N[C@@H](CO)C(=O)N[C@@H](CCCNC(N)=O)C(=O)N[C@@H](CO)C(=O)NCC(=O)NCC(=O)N[C@H](C(=O)N[C@H](C(=O)N[C@@H](CCCCNC(=N)N)C(=O)N[C@@H](CCCCN)C(=O)N[C@@H](CC(N)=O)C(=O)N[C@@H](Cc1ccc(I)cc1)C(=O)N[C@H](C(=O)N1CCC[C@H]1C(=O)N[C@H](C(=O)N[C@@H](CC(=O)O)C(=O)N[C@H](C(=O)NCC(=O)N1CCC[C@H]1C(=O)N[C@@H](Cc1ccc(I)cc1)C(=O)N[C@@H](C)C(=O)N[C@@H](Cc1ccccc1)C(N)=O)C(C)C)[C@@H](C)O)C(C)C)C(C)C)C(C)C)[C@@H](C)O)C(C)C [compound 928]
IC50 [1]: 1.16 nM

Compound: CCCC[C@H](NC(=O)[C@@H](NC(=O)CNC(=O)CNC(=O)[C@H](CO)NC(=O)[C@H](CCCNC(N)=O)NC(=O)[C@H](CO)NC(=O)[C@H](CC(C)C)NC(=O)[C@H](CC(C)C)NC(=O)CNC(=O)[C@H](C)NC(=O)[C@H](CC(C)C)NC(=O)[C@H](CCCNC(N)=O)NC(=O)[C@H](Cc1c[nH]cn1)NC(=O)[C@@H](NC(=O)[C@@H](NC(=O)[C@H](Cc1c[nH]c2ccccc12)NC(C)=O)C(C)C)[C@@H](C)O)C(C)C)C(=O)N[C@@H](CCCNC(=N)N)C(=O)N[C@@H](CCCCN)C(=O)N[C@@H](CC(N)=O)C(=O)N[C@@H](Cc1ccccc1)C(=O)N[C@H](C(=O)N1CCC[C@H]1C(=O)N[C@H](C(=O)N[C@@H](CC(=O)O)C(=O)N[C@H](C(=O)NCC(=O)N1CCC[C@H]1C(=O)N[C@@H](Cc1ccccc1)C(=O)N[C@@H](C)C(=O)N[C@@H](Cc1ccccc1)C(N)=O)C(C)C)[C@@H](C)O)C(C)C [compound 940] (Ac-WVTH[Cit]LAGLLS[Cit]SGGV[Nle]RKNFVPTDVGPFAF-NH2)
IC50 [1]: 1.85 nM

Compound: CC(=O)N[C@@H](Cc1c[nH]c2ccccc12)C(=O)N[C@H](C(=O)N[C@H]1CCC(=O)NCCCC[C@@H](C(=O)NCC(=O)N[C@@H](CC(C)C)C(=O)N[C@@H](CC(C)C)C(=O)N[C@@H](CO)C(=O)N[C@@H](CCCNC(N)=O)C(=O)N[C@@H](CO)C(=O)NCC(=O)NCC(=O)N[C@H](C(=O)N[C@H](C(=O)N[C@@H](CCCCNC(=N)N)C(=O)N[C@@H](CCCCN)C(=O)N[C@@H](CC(N)=O)C(=O)N[C@@H](Cc2ccccc2)C(=O)N[C@H](C(=O)N2CCC[C@H]2C(=O)N[C@H](C(=O)N[C@@H](CC(=O)O)C(=O)N[C@H](C(=O)NCC(=O)N2CCC[C@H]2C(=O)N[C@@H](Cc2ccccc2)C(=O)N[C@@H](C)C(=O)N[C@@H](Cc2ccccc2)C(N)=O)C(C)C)[C@@H](C)O)C(C)C)C(C)C)C(C)C)NC(=O)[C@H](CC(C)C)NC(=O)[C@H](CCCNC(=N)N)NC(=O)[C@H](Cc2c[nH]cn2)NC1=O)C(C)C [compound 906] (Ac-WVEHRLKGLLS[Cit]SGGVV[hArg]KNFVPTDVGPFAF-NH2; lactam 3-7)
IC50 (Peptide IC50, Table 2C, unconjugated peptide): 1.15 nM

Compound: SEQ ID NO:27 (WVTHXLAGLLSRSGGVVRKNFVPTDVGPFAF; CGRP peptide; MOD_RES (1)..(1): …ON; MISC_FEATURE (5)..(5): xaa=citrulline; MOD_RES (31)..(31): AMIDATION)
antagonist activity in cAMP assay, in words: well tolerated

Compound: SEQ ID NO:4 (WVTHRLAGLLSRSGGVVKNNFVPTNVGSKAF-NH2)
improved potency relative to native CGRP(8-37) (SEQ ID NO:1) (cAMP assay): greater than 7 fold

Compound: 766 (Ac-WVTHRLAGLLSRSGGVVRC(20 kDa MeO‑PEG)NFVPTDVGPFAF-NH2) [compound 766]
IC50 (Table 2D, read-out: IC50): 4.09 nM

Compound: Ac-WVTHQLAGLLSQSGGVVRKNFVPTDVGPFAF-NH2 [compound 857]
IC50 [1]: 0.53 nM

Compound: CC(=O)N[C@@H](Cc1c[nH]c2ccccc12)C(=O)N[C@H](C(=O)N[C@H](C(=O)N[C@@H](Cc1c[nH]cn1)C(=O)N[C@@H](CCCNC(N)=O)C(=O)N[C@@H](CC(C)C)C(=O)N[C@@H](C)C(=O)NCC(=O)N[C@@H](CC(C)C)C(=O)N[C@@H](CC(C)C)C(=O)N[C@@H](CO)C(=O)N[C@@H](CCCNC(N)=O)C(=O)N[C@@H](CO)C(=O)NCC(=O)NCC(=O)N[C@H](C(=O)N[C@H](C(=O)N[C@@H](CCCCNC(=N)N)C(=O)N[C@@H](CCCCN)C(=O)N[C@@H](CC(N)=O)C(=O)N[C@@H](Cc1ccc2ccccc2c1)C(=O)N[C@H](C(=O)N1CCC[C@H]1C(=O)N[C@H](C(=O)N[C@@H](CC(=O)O)C(=O)N[C@H](C(=O)NCC(=O)N1[C@H](C(=O)N[C@@H](Cc2ccccc2)C(=O)N[C@@H](C)C(=O)N[C@@H](Cc2ccc3ccccc3c2)C(N)=O)C[C@@H]2CCCC[C@@H]21)C(C)C)[C@@H](C)O)C(C)C)C(C)C)C(C)C)[C@@H](C)O)C(C)C [compound 138] (Ac-WVTH[Cit]LAGLLS[Cit]SGGVV[hArg]KN[2Nal]VPTDVG[Oic]FA[2Nal]-NH2)
IC50 (Table 2A, read-out: IC50): 3.45 nM

Now from value to compound:

IC50 [1]: 1.8 nM
Compound: CC(C)C[C@H](NC(=O)CNC(=O)[C@H](C)NC(=O)[C@H](CC(C)C)NC(=O)[C@H](CCCNC(=N)N)NC(=O)[C@H](Cc1c[nH]cn1)NC(=O)[C@@H](NC(=O)[C@@H](NC(=O)[C@H](Cc1c[nH]c2ccccc12)NC(=O)CCCCCNC(=O)[C@@H](N)CS)C(C)C)[C@@H](C)O)C(=O)N[C@@H](CC(C)C)C(=O)N[C@@H](CO)C(=O)N[C@@H](CCCNC(=N)N)C(=O)N[C@@H](CO)C(=O)NCC(=O)NCC(=O)N[C@H](C(=O)N[C@H](C(=O)N[C@@H](CCCNC(=N)N)C(=O)N[C@@H](CCCCN)C(=O)N[C@@H](CC(N)=O)C(=O)N[C@@H](Cc1ccccc1)C(=O)N[C@H](C(=O)N1CCC[C@H]1C(=O)N[C@H](C(=O)N[C@@H](CC(=O)O)C(=O)N[C@H](C(=O)NCC(=O)N1CCC[C@H]1C(=O)N[C@@H](Cc1ccccc1)C(=O)N[C@@H](C)C(=O)N[C@@H](Cc1ccccc1)C(N)=O)C(C)C)[C@@H](C)O)C(C)C)C(C)C)C(C)C [compound 916] (H-C[Ahx]WVTHRLAGLLSRSGGVVRKNFVPTDVGPFAF-NH2)

IC50 (Table 2A, read-out: IC50): 3.85 nM
Compound: CC(=O)N[C@@H](Cc1c[nH]c2ccccc12)C(=O)N[C@H](C(=O)N[C@H](C(=O)N[C@@H](Cc1c[nH]cn1)C(=O)N[C@@H](CCCNC(N)=O)C(=O)N[C@@H](CC(C)C)C(=O)N[C@@H](C)C(=O)NCC(=O)N[C@@H](CC(C)C)C(=O)N[C@@H](CC(C)C)C(=O)N[C@@H](CO)C(=O)N[C@@H](CCCNC(N)=O)C(=O)N[C@@H](CO)C(=O)NCC(=O)NCC(=O)N[C@H](C(=O)N[C@H](C(=O)N[C@@H](CCCCNC(=N)N)C(=O)N[C@@H](CCCCN)C(=O)N[C@@H](CC(N)=O)C(=O)N[C@@H](Cc1ccccc1)C(=O)N[C@H](C(=O)N1[C@H](C(=O)N[C@H](C(=O)N[C@@H](CC(=O)O)C(=O)N[C@H](C(=O)NCC(=O)N2CCC[C@H]2C(=O)N[C@@H](Cc2ccc(-c3ccccc3)cc2)C(=O)N[C@@H](C)C(=O)N[C@@H](Cc2ccccc2)C(N)=O)C(C)C)[C@@H](C)O)C[C@@H]2CCCC[C@@H]21)C(C)C)C(C)C)C(C)C)[C@@H](C)O)C(C)C [compound 134] (Ac-WVTH[Cit]LAGLLS[Cit]SGGVV[hArg]KNFV[Oic]TDVGP[Bip]AF-NH2)

IC50 (Table 2A, read-out: IC50): 13 nM
Compound: CC(=O)N[C@@H](CCCCN)C(=O)N[C@@H](Cc1c[nH]c2ccccc12)C(=O)N[C@H](C(=O)N[C@H](C(=O)N[C@@H](Cc1c[nH]cn1)C(=O)N[C@@H](CCCNC(N)=O)C(=O)N[C@@H](CC(C)C)C(=O)N[C@@H](C)C(=O)NCC(=O)N[C@@H](CC(C)C)C(=O)N[C@@H](CC(C)C)C(=O)N[C@@H](CO)C(=O)N[C@@H](CCCNC(N)=O)C(=O)N[C@@H](CO)C(=O)NCC(=O)NCC(=O)N[C@H](C(=O)N[C@H](C(=O)N[C@@H](CCCNC(=N)N)C(=O)N[C@@H](CCCCN)C(=O)N[C@@H](CC(N)=O)C(=O)N[C@@H](Cc1ccccc1)C(=O)N[C@H](C(=O)N1CCC[C@H]1C(=O)N[C@H](C(=O)N[C@@H](CC(=O)O)C(=O)N[C@H](C(=O)NCC(=O)N1CCC[C@H]1C(=O)N[C@@H](CCCCN)C(=O)N[C@@H](C)C(=O)N[C@@H](Cc1ccccc1)C(N)=O)C(C)C)[C@@H](C)O)C(C)C)C(C)C)C(C)C)[C@@H](C)O)C(C)C [compound 128] (Ac-KWVTH[Cit]LAGLLS[Cit]SGGVVRKNFVPTDVGPKAF-NH2)

IC50 (Table 2D, read-out: IC50): 0.51 nM
Compound: Ac-WVTHRLAGLLSRSGGVKRNNFVPTDVGPFAF-NH2 [compound 823]

IC50 (Table 2A, read-out: IC50): 2.73 nM
Compound: CC(=O)N[C@@H](Cc1c[nH]c2ccccc12)C(=O)N[C@H](C(=O)N[C@H](C(=O)N[C@@H](Cc1c[nH]cn1)C(=O)N[C@@H](CCCNC(N)=O)C(=O)N[C@@H](CC(C)C)C(=O)N[C@@H](C)C(=O)NCC(=O)N[C@@H](CC(C)C)C(=O)N[C@@H](CC(C)C)C(=O)N[C@@H](CO)C(=O)N[C@@H](CCCNC(N)=O)C(=O)N[C@@H](CO)C(=O)NCC(=O)NCC(=O)N[C@H](C(=O)N[C@H](C(=O)N[C@@H](CCCCNC(=N)N)C(=O)N[C@@H](CCCCN)C(=O)N[C@@H](CC(N)=O)C(=O)N[C@@H](Cc1ccccc1)C(=O)N[C@H](C(=O)N1[C@H](C(=O)N[C@H](C(=O)N[C@@H](CC(=O)O)C(=O)N[C@H](C(=O)NCC(=O)N2CCC[C@H]2C(=O)N[C@@H](Cc2cccc3ccccc23)C(=O)N[C@@H](C)C(=O)N[C@@H](Cc2ccc3ccccc3c2)C(N)=O)C(C)C)[C@@H](C)O)C[C@@H]2CCCC[C@@H]21)C(C)C)C(C)C)C(C)C)[C@@H](C)O)C(C)C [compound 133] (Ac-WVTH[Cit]LAGLLS[Cit]SGGVV[hArg]KNFV[Oic]TDVGP[1Nal]A[2Nal]-NH2)

IC50 (Table 2D, read-out: IC50): 0.36 nM
Compound: Ac-WVTHRLAGLLSRSGGVCRNNFVPTDVGPFAF-NH2 [compound 820]

IC50 (Table 3, unconjugated CGRP peptide analogs, n = 2-4, read-out: IC50): 2.15 nM
Compound: Ac-WVTHRLAGLLSRSGGVVCNNFVPTDVGPFAF-NH2 [compound 9]

Reference: patent US8168592B2 (Amgen Inc., priority 2005, dated 2012)
